Several values for one entry are separate records, joined by “and”; a condition that tells them apart may be missing. Equal values may be shown once. Entries after “also recorded” stand apart in the source; their conditions may differ.
Legend:
[1] = tested on: gene expression in organs; experiment: Blind monkey trial of three peptides: gene expression profiling of organs on Affymetrix U95 chips; assay type: in vivo, cynomolgus monkeys; details: 100 μg/animal/day sc, two weeks
[2] = Blind monkey trial of three peptides: biochemistry, clinical chemistry screening and histopathology; assay type: in vivo, cynomolgus monkeys; details: 100 μg/animal/day sc, two weeks
Method: For the verification of the selected human proteins or peptides in cynomolgus monkeys, one control and four treated groups (i.e., each of three peptides and placebo) of two males and two females are treated for two weeks by daily administration of the proteins dissolved in autologous serum (e.g., in each animal's own serum) through the subcutaneous route. The administration of the peptides was blinded. The amount of peptide administered was 100 μg/animal/day (5-6 mg of peptide total).
Drug profiling in these non-human primates was analyzed using gene expression profiling of more than 100 organs on Affymetrix U95 chips (each containing ⅓ of the human genome). In addition, extensive biochemistry and clinical chemistry screening (>60 parameters) and histopathology (ca. 60 organs) were performed.

[3] = Salmon calcitonin/PTS893 monkey study: in vivo examinations (mortality, food consumption, clinical observations, body weight); design: species or system cynomolgus monkeys (Macaca fascicularis)
Method: Solvent was used as vehicle for the control group.
The animals used in this analysis were cynomolgus monkeys (Macaca fascicularis), supplied by Centre de Recherches Primatologiques, Port Louis, Mauritius. Two animals were used per group and sex. […] Animals were examined daily for mortality, food consumption and clinical observations. Body weight was recorded once per week.
In vivo examinations. No significant histopathological changes were observed.

[4] = Salmon calcitonin/PTS893 monkey study: haematology; assay type: in vivo, cynomolgus monkeys (Macaca fascicularis);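 further: haematology parameters were measured in blood collected from a peripheral vein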
Method: Animals were fasted overnight before blood collection but had free access to water. Blood samples were taken from a peripheral vein. Standard haematology and clinical chemistry analysis were performed once during pretest and at the end of the treatment period. Blood samples were collected from each animal at the same intervals as described for the clinical chemistry investigations. The serum samples were deep-frozen (approximately −80° C.) until analyses for hormone determination.

[5] = Salmon calcitonin/PTS893 monkey study: histopathology incl. osteonectin, osteopontin and osteocalcin staining of bone; assay type: in vivo, cynomolgus monkeys (Macaca fascicularis); details: females
Method: Animals were killed by deep anaesthesia induced by intravenous injection of Pentothal®, followed by exsanguinations. All relevant tissues were sampled for histopathology and gene expression profiling. The following tissue samples were processed for analysis: liver, kidney, pituitary, muscle, bone, duodenum, spleen and trachea. Samples for histopathology were fixed in phosphate-buffered 10% formalin. Bone demineralization was performed with 10% formic acid. Tissue samples were embedded in Paraplast® and sectioned at 4 microns, for staining with haematoxylin and eosin. […] All selected tissues for gene expression profiling were examined histopathologically.
Bone sections were stained for osteonectin, osteopontin and osteocalcin and were evaluated histopathologically. Histomorphometry of the bone tissue was performed regarding parameters for bone resorption and synthesis (osteoid formation).

[6] = Salmon calcitonin/PTS893 monkey study: urinalysis; details: urine
[7] = female monkeys, day 13 of dosing
[8] = female monkeys, day −8 relative to start of dosing
[9] = male monkeys, day −6 relative to start of dosing

## Peptide 2: gonadotrophin releasing hormone (QHWSYGLRPG; Gonadoliberin-1; UniProt P01148 24-33, looked up)
[1]
  Conclusions of the in vivo Profiling by the Data Mining Team: Function/Pathway: Ovarian and testicular
  Findings by the Data Mining Team: Adrenals (gene with direction): Follistatin+; also recorded: IGF2+; also recorded: catecholamines synthesis+; also recorded: activin A−/inhibin+
  Findings by the Data Mining Team: Bone marrow (gene with direction): Macrophages+; also recorded: eosinophils+; also recorded: activin A−; also recorded: inhibin betaB+
  Findings by the Data Mining Team: Hypothalamus (gene with direction): Transthyretin+; also recorded: oxytocin
  Findings by the Data Mining Team: Kidney (gene with direction): Thiol protease inhibitor (aldosterone + in biochemistry), and +GAPDH and +STAT and +JAK and +TEGT
  Findings by the Data Mining Team: Liver (gene with direction): Activin A−; also recorded: inhibin betaB+; also recorded: lipid metabolism+; also recorded: glycolysis+; also recorded: follistatin+; also recorded: IDO1+; also recorded: VEGF−
  Findings by the Data Mining Team: Mammary gland: Inconclusive; Sampling heterogenous
  Findings by the Data Mining Team: Ovary (gene with direction): Nuclear receptors−; also recorded: aromatase and estrogen synthase+; also recorded: activinA−; also recorded: inhibin beta B+
  Findings by the Data Mining Team: Testis (gene with direction): CREM+
  Findings by the Data Mining Team: Thymus (gene with direction): Integrin alpha6+; also recorded: VAP1+; also recorded: lipid metabolism; also recorded: binding protein+,
  Findings by the Data Mining Team: Thyroid (gene with direction): Ocludin+; also recorded: thyroid hormone binding protein+; also recorded: THR alpha−
[2]
  Findings by the Data Mining Team: Biochemistry/Histopathology/Haematology (parameter with direction): Slight increase in aldosterone

## CC(C)C[C@H](NC(=O)[C@H](CCCCN)NC(=O)CNC(=O)[C@H](CC(C)C)NC(=O)[C@@H](NC(=O)[C@@H]1CSSC[C@H](N)C(=O)N[C@@H](CO)C(=O)N[C@@H](CC(N)=O)C(=O)N[C@@H](CC(C)C)C(=O)N[C@@H](CO)C(=O)N[C@@H]([C@@H](C)O)C(=O)N1)C(C)C)C(=O)N[C@@H](CO)C(=O)N[C@@H](CCC(N)=O)C(=O)N[C@@H](CCC(=O)O)C(=O)N[C@@H](CC(C)C)C(=O)N[C@@H](Cc1c[nH]cn1)C(=O)N[C@@H](CCCCN)C(=O)N[C@@H](CC(C)C)C(=O)N[C@@H](CCC(N)=O)C(=O)N[C@H](C(=O)N[C@@H](Cc1ccc(O)cc1)C(=O)N1CCC[C@H]1C(=O)N[C@@H](CCCNC(=N)N)C(=O)N[C@H](C(=O)N[C@@H](CC(N)=O)C(=O)N[C@H](C(=O)NCC(=O)N[C@@H](CO)C(=O)NCC(=O)N[C@H](C(=O)N1CCC[C@H]1C(N)=O)[C@@H](C)O)[C@@H](C)O)[C@@H](C)O)[C@@H](C)O [salmon calcitonin]
[3]; 50 μg/animal/day sc, two weeks
  Food consumption: decrease
  Signs of toxicity: no signs of toxicity
[3]; males, average of both animals of the group
  Food Consumption, Avg., Both animals: 72.9
[3]; males, average per individual animal
  Food Consumption, Avg.: 70.8 and 75.0
[3]; males, day 1 of SC dosing, individual animals
  Food Consumption, Day 1: 75 and 50
[3]; males, day 2 of SC dosing, individual animals
  Food Consumption, Day 2: 25
[3]; males, day 3 of SC dosing, individual animals
  Food Consumption, Day 3: 50 and 100
[3]; males, day 4 of SC dosing, individual animals
  Food Consumption, Day 4: 100 and 75
[3]; males, day 5 of SC dosing, individual animals
  Food Consumption, Day 5: 100
[3]; males, day 6 of SC dosing, individual animals
  Food Consumption, Day 6: 75
[3]; males, day 7 of SC dosing, individual animals
  Food Consumption, Day 7: 100 and 75
[3]; males, day 8 of SC dosing, individual animals
  Food Consumption, Day 8: 100 and 75
[3]; males, day 9 of SC dosing, individual animals
  Food Consumption, Day 9: 100
[3]; males, day 10 of SC dosing, individual animals
  Food Consumption, Day 10: 100
[3]; males, day 11 of SC dosing, individual animals
  Food Consumption, Day 11: 75 and 100
[3]; males, day 12 of SC dosing, individual animals
  Food Consumption, Day 12: 75
[3]; males, day 13 of SC dosing, individual animals
  Food Consumption, Day 13: 25
[3]; males, day 14 of SC dosing, individual animals
  Food Consumption, Day 14: 75
[3]; males, day −1 (before dosing), individual animals
  Food Consumption, Day −1: 75
[3]; males, day −2 (before dosing), individual animals
  Food Consumption, Day −2: 100
[3]; males, day −3 (before dosing), individual animals
  Food Consumption, Day −3: 75
[3]; males, day −4 (before dosing), individual animals
  Food Consumption, Day −4: 50 and 75
[3]; males, day −5 (before dosing), individual animals
  Food Consumption, Day −5: 75
[3]; males, day −6 (before dosing), individual animals
  Food Consumption, Day −6: 50
[4]; females, d7
  Haematology L: 4.61 pg/ml and 6.21 pg/ml
  Haematology M: 0.63 nmol/l and 0.82 nmol/l
  Haematology MCH: 18.6 ng/ml and 19.4 ng/ml
  Haematology MCHC: 29.0 pg/ml and 28.7 pg/ml
  Haematology PCV: 0.40 mU/l and 0.44 mU/l
  Haematology PLAT: 594 nmol/l and 356 nmol/l
  Haematology RBC: 6.2 nmol/l and 6.6 nmol/l
[4]; females, d13
  Haematology M: 0.69 nmol/l and 0.39 nmol/l
  Haematology MCH: 19.5 ng/ml
  Haematology MCHC: 30.3 pg/ml and 29.9 pg/ml
  Haematology N: 5.41 nmol/l and 6.16 nmol/l
  Haematology PCV: 0.33 mU/l and 0.37 mU/l
  Haematology PLAT: 451 nmol/l and 229 nmol/l
  Haematology RBC: 5.2 nmol/l and 5.7 nmol/l
[4]; females, d−8 (before dosing)
  Haematology E: 0.03 mUI/l
  Haematology L: 3.26 pg/ml and 4.79 pg/ml
  Haematology M: 0.25 nmol/l and 0.30 nmol/l
  Haematology MCH: 19.1 ng/ml and 19.8 ng/ml
  Haematology MCHC: 31.2 pg/ml and 30.6 pg/ml
  Haematology N: 3.45 nmol/l and 3.13 nmol/l
  Haematology PCV: 0.40 mU/l and 0.45 mU/l
  Haematology PLAT: 549 nmol/l and 304 nmol/l
  Haematology RBC: 6.5 nmol/l and 7.0 nmol/l
[4]; males, d7
  Haematology B: 0.04 G/l
  Haematology E: 0.10 G/l and 0.09 G/l
  Haematology HB: 11.7 g/dl and 11.5 g/dl
  Haematology L: 6.79 G/l and 5.57 G/l
  Haematology M: 0.73 G/l and 0.45 G/l
  Haematology MCH: 19.9 pg and 19.2 pg
  Haematology MCHC: 30.3 g/dl and 31.3 g/dl
  Haematology MCV: 66 fl and 62 fl
  Haematology N: 4.11 G/l and 3.31 G/l
  Haematology PCV: 0.39 l/l and 0.37 l/l
  Haematology PLAT: 396 G/l and 330 G/l
  Haematology RBC: 5.9 T/l and 6.0 T/l
  Haematology WBC: 11.8 G/l and 9.5 G/l
[4]; males, d13
  Haematology B: 0.03 G/l
  Haematology HB: 11.2 g/dl and 10.3 g/dl
  Haematology L: 5.38 G/l and 4.92 G/l
  Haematology M: 0.57 G/l and 0.76 G/l
  Haematology MCH: 20.2 pg and 19.2 pg
  Haematology MCHC: 29.0 g/dl and 28.7 g/dl
  Haematology MCV: 70 fl and 67 fl
  Haematology N: 1.90 G/l and 3.04 G/l
  Haematology PCV: 0.39 l/l and 0.36 l/l
  Haematology PLAT: 302 G/l and 389 G/l
  Haematology RBC: 5.6 T/l and 5.4 T/l
  Haematology WBC: 8.0 G/l and 8.8 G/l
[4]; males, d−6 (before dosing)
  Haematology HB: 12.6 g/dl and 13.6 g/dl
  Haematology L: 4.00 G/l and 6.55 G/l
  Haematology MCH: 20.2 pg and 19.7 pg
  Haematology MCHC: 31.4 g/dl and 32.0 g/dl
  Haematology MCV: 64 fl and 62 fl
  Haematology N: 3.36 G/l and 3.93 G/l
  Haematology PCV: 0.40 l/l and 0.43 l/l
  Haematology PLAT: 351 G/l and 247 G/l
  Haematology RBC: 6.3 T/l and 6.9 T/l
  Haematology WBC: 7.7 G/l and 11.5 G/l
[5]
  Inflammatory and regenerative changes in the kidneys: slightly higher incidence
[6]; [7]
  CREAT: 4800 µmol/L and 4200 µmol/L
  Ca2+: 17.55 mmol/L and 12.70 mmol/L
  Cl−: 63 mmol/L and 65 mmol/L
  I.PHOS: 5.1 mmol/L and 5.8 mmol/L
  K+: 53 mmol/L and 57 mmol/L
  Mg2+: 5.40 mmol/L and 4.85 mmol/L
  NAG: 2.8 IU/l and 2.7 IU/l
  Na+: 40 mmol/L and 32 mmol/L
  VOLUME: 67 mL and 49 mL
[6]; female monkeys, day −7 relative to start of dosing
  CREAT: 6920 µmol/L and 13380 µmol/L
[6]; [8]
  CREAT: 10780 µmol/L and 11260 µmol/L
  Ca2+: 3.00 mmol/L and 3.50 mmol/L
  K+: 104 mmol/L and 172 mmol/L
  Mg2+: 3.35 mmol/L and 3.80 mmol/L
  Na+: 98 mmol/L and 156 mmol/L
[6]; male monkeys, day 13 of dosing
  CREAT: 4620 µmol/L and 4400 µmol/L
  Ca2+: 18.25 mmol/L and 23.40 mmol/L
  Cl−: 55 mmol/L and 68 mmol/L
  I.PHOS: 2.50 mmol/L and 3.00 mmol/L
  K+: 78 mmol/L and 76 mmol/L
  Mg2+: 7.05 mmol/L and 9.80 mmol/L
  Na+: 14 mmol/L and 15 mmol/L
  VOLUME: 68 mL and 54 mL
[6]; [9]
  I.PHOS: 4.35 mmol/L and 5.33 mmol/L
  LDH: 9.0 IU/L and 13.0 IU/L
  NAG: 2.7 IU/l and 4.2 IU/l
  VOLUME: 62 mL and 37 mL

From patent US20130040882A1, “USE OF FIBROBLAST GROWTH FACTOR FRAGMENTS” (NOVARTIS AG, priority 2003, published 2013)
